This is an account of results in patent EP0235823A2, “Carbapenem antibiotics, a process for preparing them and pharmaceutical compositions containing them” (Bristol-Myers Squibb Company, priority 1986, dated 1987).

Values after ≈ are worked out from the molar mass of the structure shown.

Holding throughout (format): cell-based
Experiment [1] concerns S.aureus A9537. The experiment is described as follows: In vitro antibacterial activity, MIC by tube dilution. The conditions noted are these: Staphylococcus aureus, Nutrient Broth, overnight incubation at 37 deg. C. An excerpt:
(§1) C by tube dilution. N-formimidoyl thienamycin was included as a comparison compound.

The test system of experiment [2] is S.faecalis A20688. The description is as above. To be noted: Enterococcus faecalis, Nutrient Broth, overnight incubation at 37 deg. C.
Excerpt: as §1

In experiment [3] the test system is S.pneumoniae A9585. The description is as above. To be noted: Streptococcus pneumoniae, Nutrient Broth, overnight incubation at 37 deg. C.
Excerpt: as §1

In experiment [4] the test system is S.pyogenes A9604. Described as above. To be noted: Streptococcus pyogenes, Nutrient Broth, overnight incubation at 37 deg. C.
Excerpt: as §1

Experiment [5] relates to S.aureus + 50% serum A9537S. The experiment is described as follows: In vitro antibacterial activity, MIC by tube dilution, with 50% serum. To be noted: Staphylococcus aureus, read-out: MIC (mcg/ml).
Excerpt: as §1

In the case of `C[C@@H](O)[C@H]1C(=O)N2C(C(=O)[O-])=C(SCC[N+]34CCN(CC3)CC4)[C@H](C)[C@H]12` [Ex. 7, (5R,6S) 3-[2-(1,4-diazabicyclo[2.2.2.]octanium-1-yl)ethylthio]-6-(1R-hydroxyethyl)-4R-methy3-7-oxo-1-azabicyclo[3.2.0]hept-2-ene-2-carboxylate], the MIC in experiment [1] was determined as 0.5 µg/mL (≈ 1.31 µM); in experiment [2], 2 µg/mL (≈ 5.24 µM); in experiment [3], 0.03 µg/mL (≈ 0.0786 µM); in experiment [4], 0.03 µg/mL (≈ 0.0786 µM); in experiment [5] it was 0.13 µg/mL (≈ 0.341 µM).
For `CC(O)C1C(=O)N2C(C(=O)O)=C(SCCN=CN)CC12` (stereo not shown) [N-Formimidoy Thienamycin, N-formimidoyl thienamycin], the MIC turned out to be 0.004 µg/mL (≈ 0.0134 µM) in experiment [1]; 0.25 µg/mL (≈ 0.835 µM) in experiment [2]; 0.002 µg/mL (≈ 0.00668 µM) in experiment [3]; 0.002 µg/mL (≈ 0.00668 µM) in experiment [4]; 0.016 µg/mL (≈ 0.0534 µM) in experiment [5].
